“And” between values parts separate entries of the source, which are not always exact repeats. Equal values may be shown once.
How the values were obtained:
[1] = tested on: testosterone-enhanced ventral prostate and seminal vesicle weights; test: Ventral Prostate and Seminal Vesicle Weight in vivo Assay; design: species or system rat; conditions: immature castrated male Sprague Dawley rats, once daily for five days, usually orally 40 mg/kg, with testosterone propionate 2 mg/kg s.c. Further: key: 'active' if the non weight adjusted prostate weight was ≦40 mg or the % Inhibition prostate weight, body weight adjusted was ≧40% @ 2 mg/day dosage; ID50's, if determined, of ≦15 mg/day also indicated an 'active' compound; listed herein as 'inactive' as they did not meet the specified criteria defined above.
In short: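 Immature castrated male Sprague Dawley rats (~50 g) were dosed once daily for five days with compound, usually orally at 40 mg/kg in cyclodextrin or methylcellulose vehicle. Testosterone propionate was co-dosed subcutaneously at 2 mg/kg. On day six, ventral prostate and seminal vesicle wet weights were measured; activity was judged on prostate weight or body-weight-adjusted % inhibition.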

[2] = target: T1, androgen receptor (AdEasy+rAR, L929 cells) (Rattus norvegicus, UniProt P15207); test: L929 Androgen Receptor Functional Assay, Adenovirus Transduction; type: cell-based; conditions: for inhibition at 3 µM: L929, antagonist testing with R1881, 3000 nM; for % Inhibition, L929 androgen receptor functional assay: antagonist testing with R1881, 3000 nM
T1 construct: expressed in transfected cells; host or cells: L929 cells transduced with adenovirus AdEasy+rAR
T1 sequence (P15207 1-902): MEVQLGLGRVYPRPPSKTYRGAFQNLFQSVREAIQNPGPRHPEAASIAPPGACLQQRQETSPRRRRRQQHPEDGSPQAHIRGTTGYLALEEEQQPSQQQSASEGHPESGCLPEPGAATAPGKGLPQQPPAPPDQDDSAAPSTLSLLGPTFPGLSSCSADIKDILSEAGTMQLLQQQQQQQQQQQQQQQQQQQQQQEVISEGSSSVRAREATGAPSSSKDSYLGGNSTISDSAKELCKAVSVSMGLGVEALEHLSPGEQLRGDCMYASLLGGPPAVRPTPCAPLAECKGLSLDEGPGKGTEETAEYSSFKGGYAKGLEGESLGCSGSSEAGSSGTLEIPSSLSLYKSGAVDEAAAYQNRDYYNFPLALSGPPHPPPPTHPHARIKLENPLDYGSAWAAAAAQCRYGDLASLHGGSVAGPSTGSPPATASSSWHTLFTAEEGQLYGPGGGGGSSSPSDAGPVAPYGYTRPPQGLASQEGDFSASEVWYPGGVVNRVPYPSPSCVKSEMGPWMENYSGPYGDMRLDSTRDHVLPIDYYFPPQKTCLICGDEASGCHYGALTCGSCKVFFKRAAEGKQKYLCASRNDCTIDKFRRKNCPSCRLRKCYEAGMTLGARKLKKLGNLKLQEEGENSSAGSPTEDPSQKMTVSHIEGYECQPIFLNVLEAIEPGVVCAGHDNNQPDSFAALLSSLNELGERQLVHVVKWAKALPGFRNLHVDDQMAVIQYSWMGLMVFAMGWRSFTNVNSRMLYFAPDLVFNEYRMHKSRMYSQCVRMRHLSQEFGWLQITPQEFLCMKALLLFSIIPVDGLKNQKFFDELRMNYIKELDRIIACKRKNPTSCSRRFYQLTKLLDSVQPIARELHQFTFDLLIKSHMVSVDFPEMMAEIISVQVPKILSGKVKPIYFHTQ
In short: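 L929 cells in phenol red-free, charcoal-stripped serum medium transduced with AdEasy+rAR (moi 1:500) and exposed 48 h at 37 °C to compound alone (agonist mode) or with R1881 (antagonist mode; 2.5 nM as the 2.5× dilution).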

| SMILES | active / inactive: inhibition of testosterone-enhanced prostate weight [1] | inhibition at 3 µM [2] [%] | % Activity, L929 androgen receptor functional assay ([2]; agonist testing, 3000 nM) [%] | % Inhibition, L929 androgen receptor functional assay [2] [%] | EC50 ([2]; agonist testing) [nM] | % Activity, L929 androgen receptor functional assay ([2]; agonist testing, 3000 nM, 3 µM) | % Activity, L929 androgen receptor functional assay ([2]; agonist testing, @ 8000 nM) | IC50 ([2]; antagonist testing with R1881) [nM] | % Inhibition, L929 androgen receptor functional assay ([2]; 3 µM) |
| --- | --- | --- | --- | --- | --- | --- | --- | --- | --- |
| CC(C)SCC(C)(O)c1cc2cc([N+](=O)[O-])c(C(F)(F)F)cc2[nH]1 (stereo not shown) [Compound 164] | inactive | 71 | 2 | – | – | – | – | – | – |
| CCSCC(O)(CC)c1cc2cc([N+](=O)[O-])c(C(F)(F)F)cc2[nH]1 (stereo not shown) [Compound 169] | active | 98 | 2 | – | – | – | – | – | – |
| CCSCC(C)(O)c1cc2cc([N+](=O)[O-])c(C(F)(F)F)cc2n1S(C)(=O)=O (stereo not shown) [Compound 141] | inactive | 42 | 0 | – | – | – | – | – | – |
| CCC(O)(CS(=O)(=O)CC)c1cc2cc([N+](=O)[O-])c(C(F)(F)F)cc2[nH]1 (stereo not shown) [Compound 176] | active | 81 | 3 | – | – | – | – | – | – |
| COc1ccc(S(=O)(=O)CC(C)(O)c2cc3cc(Cl)c(C(F)(F)F)cc3[nH]2)cc1 (racemic) [Compound 129] | inactive | – | −5 | −8 | – | – | – | – | – |
| CSCC(C)(O)c1cc2cc(C#N)c(C(F)(F)F)cc2[nH]1 (stereo not shown) [Compound 136] | active | 75 | 0 | – | – | – | – | – | – |
| CC(O)(CSCc1ccccc1)c1cc2cc([N+](=O)[O-])c(C(F)(F)F)cc2[nH]1 (stereo not shown) [Compound 160] | inactive | 76 | 1 | – | – | – | – | – | – |
| CCCSCC(C)(O)c1cc2cc([N+](=O)[O-])c(C(F)(F)F)cc2[nH]1 (stereo not shown) [Compound 168] | inactive | 26 | 3 | – | – | – | – | – | – |
| CC(O)(CSCC(F)(F)F)c1cc2cc([N+](=O)[O-])c(C(F)(F)F)cc2[nH]1 (stereo not shown) [Compound 171] | active | – | – | – | > 8000 | 11% | −1 @ 8000 nM % | 366 | 101% and 70% |
| CC(O)(CSC1CCCC1)c1cc2cc([N+](=O)[O-])c(C(F)(F)F)cc2[nH]1 (stereo not shown) [Compound 173] | inactive | 40 | 2 | – | – | – | – | – | – |
| COc1ccc(SCC(C)(O)c2cc3cc(Cl)c(C(F)(F)F)cc3[nH]2)cc1 (stereo not shown) [Compound 131] | inactive | -4 | −5 | – | – | – | – | – | – |
| CC(O)(CSc1ccc(N)cc1)c1cc2cc(Cl)c(C(F)(F)F)cc2[nH]1 (stereo not shown) [Compound 104] | inactive | 18 | 9 | – | – | – | – | – | – |
| CCS(=O)(=O)C[C@](C)(O)c1cc2cc([N+](=O)[O-])c(C(F)(F)F)cc2[nH]1 [Compound 156, 1-Ethanesulfonyl-2-(5-nitro-6-trifluoromethyl-1H-indol-2-yl)-propan-2-ol] | inactive | 35 | 2 | – | – | – | – | – | 23% |
| CCSCC(C)(O)c1cc2cc([N+](=O)[O-])c(C(F)(F)F)cc2n1C (racemic) [Compound 165] | active | 100 | 1 | – | – | – | – | – | – |
| CC(O)(C[S+]([O-])Cc1ccccc1)c1cc2cc([N+](=O)[O-])c(C(F)(F)F)cc2[nH]1 (mixture of isomers) [Compound 161] | inactive | – | 2 | – | – | – | – | – | – |
| CCSCC(O)c1cc2cc([N+](=O)[O-])c(C(F)(F)F)cc2[nH]1 (stereo not shown) [Compound 158] | inactive | 21 | – | – | – | 3% and 2% | – | – | 29% |
| CC[S+]([O-])C[C@](C)(O)c1cc2cc([N+](=O)[O-])c(C(F)(F)F)cc2[nH]1 (stereo in doubt) [Compound 155, 1-Ethanesulfinyl-2-(5-nitro-6-trifluoromethyl-1H-indol-2-yl)-propan-2-ol] | inactive | -2 | 2 | – | – | – | – | – | – |
| CC(O)(CCS(C)(=O)=O)c1cc2cc([N+](=O)[O-])c(C(F)(F)F)cc2[nH]1 (stereo not shown) [Compound 49] | inactive | 8 | 2 | – | – | – | – | – | – |
| CC(C)CSCC(C)(O)c1cc2cc([N+](=O)[O-])c(C(F)(F)F)cc2[nH]1 (stereo not shown) [Compound 170] | active | 67 | 2 | – | – | – | – | – | – |

From US7282507B2, “Indole derivatives as selective androgen receptor modulators (SARMS)” (Janssen Pharmaceutica N.V., priority 2004, dated 2007)
